Assay results taken from patent US10596169B2, “Cancer treatment with combination of plinabulin and taxane” (BeyondSpring Inc., priority 2013, dated 2020).

Legend:
[1] = Example 3: clinical study, safety (docetaxel dose reduction, neutropenia rate, G-CSF use), Arm DN vs Arm D; assay type: in vivo, human (NSCLC patients)
Description: The investor applied the optimum plinabulin and docetaxel combination treatment schedule derived from MV522 animal studies in NSCLC patients. Patients received therapy on Day 1 and Day 8 in 3-week cycles. Therapy on Day 1 consisted of 75 mg/m^2 docetaxel administered via intravenous infusion (IV) over 1 hour, followed 2 hours later (from the time the docetaxel infusion begins) by 30 mg/m^2 plinabulin administered via intravenous infusion (IV) over 30 minutes. Therapy on Day 8 consisted of 20 mg/m^2 or 30 mg/m^2 plinabulin administered via intravenous infusion (IV) over 30 minutes.
This was an open-label study in patients with advanced NSCLC that had progressed after treatment with at least 1 chemotherapy regimen. Patients were randomized to receive either docetaxel plus plinabulin (DN) or docetaxel alone (75 mg/m^2) (D). 2 dosing cohorts were investigated: • 1) 30 mg/m^2 dosing cohort: Approximately 110 patients were to be randomized (1:1) to receive either docetaxel plus plinabulin at 30 mg/m^2 (DN 30 mg/m^2 arm) or docetaxel alone (D arm); • 2) 20 mg/m^2 dosing cohort: Approximately 57 patients were to be randomized (2:1) to receive either docetaxel plus plinabulin at 20 mg/m^2 (DN 20 mg/m^2 arm) or docetaxel (D arm) alone.
Patients received therapy on Day 1 and Day 8 in 3-week cycles.
Therapy on Day 1 consisted of 75 mg/m^2 docetaxel administered via intravenous infusion (IV) over 1 hour, followed 2 hours later (from the time the docetaxel infusion began) by placebo (Arm D) or 30 mg/m^2 or 20 mg/m^2 plinabulin (Arm DN) DN administered via intravenous infusion (IV) over 30 minutes. Oral dexamethasone (16 mg) was given the day prior to, the day of and the day following docetaxel infusion (Day 1). Therapy on Day 8 consisted of placebo (Arm D) or 30 mg/m^2 or 20 mg/m^2 plinabulin (Arm DN) administered via intravenous infusion (IV) over 30 minutes.
In patients experiencing drug related Grade >2 treatment emergent adverse events (except alopecia, anorexia, and fatigue) according to the CTCAE (v3.0) treatment may be delayed until the adverse event has recovered to <Grade 1.
The initial dose of plinabulin was 30 mg/m^2 or 20 mg/m^2. Dose adjustments depended on observed adverse events. Volume of administration varied based on assigned dose and patient body surface area. The clinical formulation were supplied as a concentrated solution in 40% Solutol® HS-15/60% propylene glycol in amber vials containing 80 mg of drug in 20 mL (4 mg/mL) and were stored at room temperature. Each vial was designated for single use. The correct volume of drug (at a concentration of 4 mg/mL in the vial) was diluted in dextrose 5% in water (D5W) at a dilution of 1:20 and administered IV peripherally or centrally. Infusion time may be increased as clinically indicated at the direction of the Sponsor. Plinabulin and placebo must be protected from light at all times including storage, dilution and administration. Plinabulin and placebo should be administered within 6 hours of dilution.
The initial dose of docetaxel was 75 mg/m^2. Dose adjustments depended on observed adverse events.
Comparisons were made of efficacy endpoints between Arm D and Arm DN. The primary efficacy endpoint is overall survival. Secondary endpoints include response rate, duration of response, quality of life, neutropenia rate and G-CSF usage. […]
All patients were evaluated for safety analysis if they received at least one dose of study drug. […]

NSCLC = conditions: wide type NSCLC patients (stage IIIb/IV, second line), docetaxel 75 mg/m^2; cited from earlier work

CC(=O)O[C@@]12CO[C@@H]1C[C@H](O)[C@@]1(C)C(=O)[C@H](O)C3=C(C)[C@@H](OC(=O)[C@H](O)[C@@H](NC(=O)OC(C)(C)C)c4ccccc4)C[C@@](O)([C@@H](OC(=O)c4ccccc4)[C@H]21)C3(C)C [Docetaxel, docetaxel]
Patients requiring docetaxel dose reductions ([1]; 20 mg/m^2 plinabulin cohort and companion D arm): 22.2% | Patients with docetaxel dose decrease from initial 75 mg/m^2 ([1]; 30 mg/m^2 plinabulin cohort and matched docetaxel alone arm): 18.2% | Incidence of neutropenia ([1]; DN 20 mg/m^2 arm vs companion D arm): 22.2% | Incidence of neutropenia ([1]; DN 30 mg/m^2 arm vs companion D arm): 36.4% | Incidence of ≥Grade 3 neutropenia ([1]; pooled D arm (n=73)): 27.4% | OS (NSCLC): 8.2 months
